Four molecules from patent US20090306133A1, “New Acetyl Coenzyme A Carboxylase (ACC) Inhibitors And Uses In Treatments Of Obesity And Diabetes Mellitus - 087” (ASTRAZENECA AB, priority 2007, published 2009) can be followed below.

Assay [1] addresses Human recombinant Acetyl-CoA Carboxylase 2 (ACC2) (Homo sapiens, UniProt O00763). The assay can be described thus: Assay X: ACC2 inhibition, inorganic phosphate (malachite green). The assay is classed as biochemical. The conditions noted are these: Assay X: 37° C., 1.5 h, 5 min pre-incubation. In short, it runs like this:
(§1)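 Human recombinant enzyme pre-incubated 5 min with compound before substrate addition; reaction run 1.5 h, then inorganic phosphate detected by malachite green absorbance at 660 nm. Ten concentrations tested in triplicate; apparent IC50 from four-parameter curve fit.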

The target of assay [2] is Human recombinant Acetyl-CoA Carboxylase 1 (ACC1) (Homo sapiens, UniProt Q13085). The assay can be described thus: Assay X: ACC1 inhibition, inorganic phosphate (malachite green). The assay is classed as biochemical. The note with it: Assay X: 37° C., 1.5 h, 5 min pre-incubation. A digest of the protocol: as §1

SMILES strings stand for the structures.

Sequence of Human recombinant Acetyl-CoA Carboxylase 2 (ACC2) (O00763 whole entry): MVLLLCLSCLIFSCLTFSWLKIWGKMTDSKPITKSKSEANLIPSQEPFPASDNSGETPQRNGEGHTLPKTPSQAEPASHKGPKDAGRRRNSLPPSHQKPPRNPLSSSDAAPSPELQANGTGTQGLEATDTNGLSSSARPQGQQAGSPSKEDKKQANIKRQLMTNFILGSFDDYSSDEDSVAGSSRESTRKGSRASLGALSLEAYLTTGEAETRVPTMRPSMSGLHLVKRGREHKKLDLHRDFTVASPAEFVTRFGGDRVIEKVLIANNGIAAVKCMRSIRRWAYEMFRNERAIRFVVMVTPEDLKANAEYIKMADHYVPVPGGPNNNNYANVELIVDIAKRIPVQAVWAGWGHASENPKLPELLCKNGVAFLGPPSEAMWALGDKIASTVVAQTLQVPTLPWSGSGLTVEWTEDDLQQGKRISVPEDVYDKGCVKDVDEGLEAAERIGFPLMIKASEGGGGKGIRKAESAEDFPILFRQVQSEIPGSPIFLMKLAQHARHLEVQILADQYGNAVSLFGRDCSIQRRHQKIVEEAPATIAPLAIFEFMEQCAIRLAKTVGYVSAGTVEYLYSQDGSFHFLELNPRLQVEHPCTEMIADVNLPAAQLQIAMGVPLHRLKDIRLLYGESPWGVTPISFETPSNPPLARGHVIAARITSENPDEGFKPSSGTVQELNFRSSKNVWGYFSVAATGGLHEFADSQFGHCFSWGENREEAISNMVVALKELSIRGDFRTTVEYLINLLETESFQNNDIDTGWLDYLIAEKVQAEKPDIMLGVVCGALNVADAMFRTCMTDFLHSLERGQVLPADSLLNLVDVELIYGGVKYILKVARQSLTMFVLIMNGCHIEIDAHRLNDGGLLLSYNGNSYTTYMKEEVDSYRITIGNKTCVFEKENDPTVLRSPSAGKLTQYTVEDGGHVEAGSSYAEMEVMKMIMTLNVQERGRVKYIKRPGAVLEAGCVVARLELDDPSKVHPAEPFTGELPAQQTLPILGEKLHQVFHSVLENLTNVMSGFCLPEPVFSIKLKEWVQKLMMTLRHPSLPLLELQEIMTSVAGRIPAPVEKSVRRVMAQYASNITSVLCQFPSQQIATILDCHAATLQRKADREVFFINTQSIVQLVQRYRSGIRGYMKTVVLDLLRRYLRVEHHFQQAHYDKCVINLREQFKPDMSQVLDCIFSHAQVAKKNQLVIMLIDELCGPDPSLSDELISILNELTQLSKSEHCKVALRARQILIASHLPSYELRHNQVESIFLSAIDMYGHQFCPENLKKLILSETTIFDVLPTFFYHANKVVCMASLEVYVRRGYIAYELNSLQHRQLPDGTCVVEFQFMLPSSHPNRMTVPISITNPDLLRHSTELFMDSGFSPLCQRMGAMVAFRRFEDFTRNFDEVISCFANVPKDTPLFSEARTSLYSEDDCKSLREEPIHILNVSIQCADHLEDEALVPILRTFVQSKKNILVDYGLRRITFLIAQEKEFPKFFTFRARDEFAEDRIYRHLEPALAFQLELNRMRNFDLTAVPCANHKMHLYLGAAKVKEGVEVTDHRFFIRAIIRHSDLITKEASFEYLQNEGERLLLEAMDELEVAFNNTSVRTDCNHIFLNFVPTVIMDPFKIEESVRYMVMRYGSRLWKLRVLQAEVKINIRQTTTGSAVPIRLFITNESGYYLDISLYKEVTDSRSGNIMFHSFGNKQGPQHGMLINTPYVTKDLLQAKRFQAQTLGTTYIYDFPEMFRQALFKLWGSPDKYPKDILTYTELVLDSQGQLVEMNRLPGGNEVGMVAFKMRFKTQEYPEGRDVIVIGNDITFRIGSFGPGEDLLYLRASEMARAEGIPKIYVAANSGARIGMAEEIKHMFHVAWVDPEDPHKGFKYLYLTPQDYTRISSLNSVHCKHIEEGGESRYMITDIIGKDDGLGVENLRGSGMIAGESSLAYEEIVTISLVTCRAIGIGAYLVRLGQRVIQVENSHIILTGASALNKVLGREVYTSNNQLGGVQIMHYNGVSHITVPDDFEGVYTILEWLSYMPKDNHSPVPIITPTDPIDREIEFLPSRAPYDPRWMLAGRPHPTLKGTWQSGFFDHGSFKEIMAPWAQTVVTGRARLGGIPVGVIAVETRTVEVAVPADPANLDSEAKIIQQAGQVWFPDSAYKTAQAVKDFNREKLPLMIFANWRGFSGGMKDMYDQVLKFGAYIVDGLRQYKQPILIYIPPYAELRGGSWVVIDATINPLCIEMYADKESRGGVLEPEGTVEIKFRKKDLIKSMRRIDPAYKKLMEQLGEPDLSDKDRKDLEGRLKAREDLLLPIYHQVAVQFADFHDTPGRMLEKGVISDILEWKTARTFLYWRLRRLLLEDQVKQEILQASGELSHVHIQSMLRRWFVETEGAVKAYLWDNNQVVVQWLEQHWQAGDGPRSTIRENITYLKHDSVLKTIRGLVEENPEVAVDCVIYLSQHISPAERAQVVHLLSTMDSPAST

In general, IC50 refers to the point on the concentration scale where inhibition reaches its midpoint. With `CN(C)CCn1cc(-c2cc(C(=O)NC[C@H]3CC[C@H](CNC(=O)OC(C)(C)C)CC3)c3ccccc3n2)cn1` [Example 242, tert-Butyl {[trans-4-({[(2-{1-[2-(dimethylamino)ethyl]-1H-pyrazol-4-yl}quinolin-4-yl)carbonyl]amino}methyl)cyclohexyl]methyl}carbamate], the figures for the half-inhibitory concentration (IC50) in assay [1] and in assay [2] were 240 nM and 1330 nM, respectively.

For the molecule `CC(C)(C)OC(=O)NC[C@H]1CC[C@H](CNC(=O)c2cc(-c3cnn(CCO)c3)nc3ccccc23)CC1` [Example 243, tert-Butyl [(trans-4-{[({2-[1-(2-hydroxyethyl)-1H-pyrazol-4-yl]quinolin-4-yl}carbonyl)amino]methyl}cyclohexyl)methyl]carbamate], the results for the IC50 in assay [1] and in assay [2] were 610 nM and 1930 nM, respectively.

For `CC(C)(C)OC(=O)NC[C@H]1CC[C@H](CNC(=O)c2cc(N3CCC(CCNCCF)CC3)nc3ccccc23)CC1` [Example 244], the values for the concentration for half-maximal inhibition (IC50) in assay [1] and in assay [2] were 150 nM and 1250 nM, respectively.

Turning to `CN(CCF)CCC1CCN(c2cc(C(=O)NC[C@H]3CC[C@H](CNC(=O)OC(C)(C)C)CC3)c3ccccc3n2)CC1` [Example 245, tert-Butyl ({trans-4-[({[2-(4-(2-((2-fluoroethyl)(methyl)amino)ethyl}piperidin-1-yl)quinolin-4-yl]carbonyl}amino)methyl]cyclohexyl}methyl)carbamate], the IC50 in assay [1] came out at 180 nM; in assay [2] it was 1400 nM.
